According to US10876089B2, “Apparatus and method for high-fidelity podocyte cultivation” (priority 2016, dated 2020):
Entries after “also recorded” stand apart in the source; their conditions may differ.

Assays:
Type in all cases: cell-based
[1] = tested on: murine nephrin gene (NPHS1) in E11 murine podocytes; assay: PAN stimulation of differentiated podocytes, nephrin gene expression by RT-qPCR; conditions: 17-100 μM PAN for 24 hours (day 8 to 9); microcurvature surface; 15,000 cells/cm^2; (+)ATRA media
Procedure: On day 9, cells were washed with warm, non-supplemented RPMI 1640 basal media prior to lysing and RNA isolation. A High Pure RNA Isolation Kit (Roche) was used according to manufacturer's instructions, using 50 μL of elution buffer for the final step. Each sample from the study consisted of 3 individual wells pooled together, to ensure that a sufficient amount of RNA was being collected. Thus, 9 wells were seeded for each group to generate n=3 samples per condition. Isolated RNA was converted to complementary DNA (cDNA) using the High Capacity cDNA Reverse Transcription Kit (Applied Biosystems, USA) for ensuing PCR applications. RNA solutions were diluted to a final 7.5 ng/μL in a total reaction volume of 60 μL. Real-time PCR was run on the generated cDNA using the TaqMan Gene Expression Assay (Applied Biosystems). cDNA was diluted to 3.33 ng/μL in a volume of 9 μL, for a total of 30 ng cDNA per reaction. […] Expression of murine nephrin gene (NPHS1, Thermo Fisher Scientific) and the housekeeping gene Beta-2-Microglobulin (B2M, Thermo Fisher Scientific) was determined using relative quantification analysis (28), where C57/bl6 mouse whole kidney cDNA was used as a positive control and as a normalizer in calculations. […]

E11 murine podocytes = assay: Immunofluorescent staining (F-actin, nephrin, WGA) of differentiated podocytes; conditions: 100 μM PAN vs without PAN; microcurvature surface
Procedure: For immunofluorescent staining, cells were first washed with Dulbecco's phosphate buffered saline (DPBS, Life Technologies) and then fixed in 4% paraformaldehyde solution for 15 min at room temperature, followed by another wash with DPBS. For F-actin staining, the cells were permeated and blocked in 10% (v/v) FBS and 0.25% Triton X100 in DPBS for 1 hour. Next, the cells were incubated with Alexa Fluor® 660 phalloidin (Thermo Fisher Scientific) for 1 hour. For Nephrin and Wheat Germ Agglutinin (WGA) staining, the cells were blocked in 10% normal goat serum for 1 hour. Next, the cells were incubated in primary anti-Nephrin antibody (Thermo Fisher Scientific) overnight at 4° C. followed by incubation with FITC goat anti-rabbit IgG (1:200 dilutions, Abcam, UK) for 1 hour at room temperature. Lastly, the cells were incubated with Rhodamine-WGA (1:1000 dilution, Vector Laboratories, USA) for 10 min at room temperature.
The additional influence of the microcurvature topography is shown by the change from compacted, spindle-like cells to arborized morphologies. This was especially evident in the vehicle-only group.
From immunostaining results, it appeared that cell membrane area and nephrin expression decreased, indicating a possible reduction in cell spreading as a result of the PAN insult. However, the localization of nephrin still consistently appeared on top of the bubbles. […]

podocyte layer = assay: Permeability of cells cultured on transwell microcurvature or flat membrane; conditions: treatment by PAN, 15,000 or 50,000 cells/cm^2
Description: One of the important physiological consequences from the disruption of the nephrin adhesion protein is the loss of barrier function from the podocyte slit diaphragm, which leads to abnormal protein levels in urine (e.g. albumin, etc.). The disclosed microcurvature membrane system may enable a direct measurement of the permeability of the podocyte layer in a non-invasive manner, in order to probe the barrier function at the podocyte slit diaphragm.
The permeability of the microcurvature membrane, without cells, may be investigated using dye, fluorescently labeled molecules, or any molecule whose concentration may be quantified in the chamber solution. Some examples include 1-10 μM of 70 kDa TRITC-dextran or 60 kDa FITC-albumin. The molecule of interest may be placed in the upper transwell chamber and collected in the lower chamber over time, or vice-versa. […] FIG. 12F is a plot of example preliminary results showing the permeability of the membrane surface (also referred to as a “topomembrane”) in different configurations, namely without microcurvature (“flat topomembrane”) or with convex microcurvature (“bubble topomembrane”); with cells cultivated on the surface (“+cells”), before cell cultivation (“no cells”) or after cultivated cells are removed (“cells removed”); and compared to the culture well without any membrane (“transwells”). […]

CN(C)c1ncnc2c1ncn2[C@@H]1O[C@H](CO)[C@@H](N)[C@H]1O [PAN, Puromycin amino nucleoside]
nephrin gene expression compared to the PAN-free control [1]: moderate downregulation; also recorded: dose-response downregulated behaviour
cell membrane area (immunostaining) (E11 murine podocytes): decreased
nephrin expression (immunostaining) (E11 murine podocytes): decreased
permeability of cells in response to chemical insult (podocyte layer): increasing permeability
